Broadly, the IC50 is the midpoint of a concentration-inhibition curve. The term EC50 denotes the concentration needed to bring the measured effect to its halfway point. As usually defined, the MIC is the smallest concentration in the dilution series that meets the test's criterion for growth inhibition.

≈ marks a conversion by molar mass, not a printed value. Where two headings read alike, the source gives them in different places.

One experiment addresses MetRS (C. parvum) (Cryptosporidium parvum, UniProt Q5CVN0). Put plainly: MetRS (C. parvum) enzyme inhibition. The class given is biochemical. The following applies: read-out: (C) MetRS (C. parvum) IC50.
Another experiment concerns the target T1, MetRS (T. brucei) (Trypanosoma brucei brucei, UniProt Q38C91).
T1 sequence (Q38C91 1-773): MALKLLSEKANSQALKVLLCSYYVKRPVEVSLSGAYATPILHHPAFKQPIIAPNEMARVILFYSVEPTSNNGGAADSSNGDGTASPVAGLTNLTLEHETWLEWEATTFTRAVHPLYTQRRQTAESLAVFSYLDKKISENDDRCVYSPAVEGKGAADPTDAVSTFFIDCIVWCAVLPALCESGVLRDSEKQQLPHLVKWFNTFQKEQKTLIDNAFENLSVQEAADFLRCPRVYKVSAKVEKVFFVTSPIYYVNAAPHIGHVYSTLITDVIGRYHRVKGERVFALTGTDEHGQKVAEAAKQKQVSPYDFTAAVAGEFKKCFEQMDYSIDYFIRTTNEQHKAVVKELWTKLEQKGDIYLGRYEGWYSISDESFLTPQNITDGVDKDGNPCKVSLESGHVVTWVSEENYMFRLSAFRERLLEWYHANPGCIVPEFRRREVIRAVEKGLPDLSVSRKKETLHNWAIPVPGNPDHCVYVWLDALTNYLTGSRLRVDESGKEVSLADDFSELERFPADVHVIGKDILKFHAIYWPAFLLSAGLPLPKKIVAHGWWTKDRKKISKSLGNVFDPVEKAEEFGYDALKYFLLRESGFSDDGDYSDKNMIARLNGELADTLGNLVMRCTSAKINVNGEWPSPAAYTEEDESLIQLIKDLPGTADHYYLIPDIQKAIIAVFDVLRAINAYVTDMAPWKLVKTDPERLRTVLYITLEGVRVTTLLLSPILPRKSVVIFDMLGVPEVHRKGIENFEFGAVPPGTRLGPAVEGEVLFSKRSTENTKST
The experiment in a line: MetRS (T. brucei) enzyme inhibition. The class given is biochemical.

The next experiment concerns T. brucei. Put plainly: T. brucei growth inhibition. The class given is cell-based, Trypanosoma brucei. As to conditions: Trypanosoma brucei; read-out: (D) T. brucei EC50.
Another experiment has as its system T. cruzi. Put plainly: T. cruzi growth inhibition. The class given is cell-based, Trypanosoma cruzi. As to conditions: read-out: (E) T. cruzi EC50.
Experiment [1] has as its system S. aureus MSSA (ATCC 29213). Put plainly: MIC susceptibility testing. As to conditions: S. aureus ATCC 29213; for MIC: Staphylococcus aureus, read-out: (F) S. aureus (ATCC 29213) MIC. The class given is cell-based, Staphylococcus aureus. The source says:
Media and culture conditions. Mueller Hinton broth (MHB), cation adjusted Mueller Hinton broth (CA-MHB), and Brain Heart Infusion broth (BHI) were purchased from Becton Dickinson (Franklin Lakes, N.J.). Tryptic soy agar (TSA) plates, TSA with 5% sheep blood plates, and CA-MHB with 3% laked horse blood were purchased from Remel (San Diego, Calif.). MHB was used to assay all Staphylococcus aureus strains. CA-MHB was used for Staphylococcus epidermidis, Enterococcus faecalis, Enterococcus faecium, Escherichia coli, and Pseudomonas aeruginosa. CA-MHB supplemented with 3% laked horse blood was used for Streptococcus pneumoniae and Streptococcus pyogenes. Staphylococcus, Enterococcus, Escherichia, and Pseudomonas strains were cultured at 37° C. with ambient air. Streptococcus strains were cultured in 37° C. with 5% CO2. Separate conditions for radiolabeled precursor uptake assays are described below.
Susceptibility testing: Minimum inhibitory concentration (MIC) determinations were performed in triplicate in 96-well round bottom microtiter plates (Corning, Corning N.Y.) as described by the Clinical and Laboratory Standards Institute (CLSI). Serial two-fold dilutions of compounds were added to plates in 50 μL volumes. An additional 50 μL of media containing bacterial cells (1×10^6 CFUs/mL) was then added to each well. Maximum DMSO concentrations were 0.5%. Plates were incubated at 37° C. for at least 18 h before reading the susceptibility result by optical absorbance (OD600) using a BioTek ELx800. The lowest concentration causing ≥90% growth inhibition compared to the untreated control was recorded as the MIC (and also corresponded to the visual MIC). MICs were measured at least twice and the higher value (if different) was recorded herein.

Sequence of MetRS (C. parvum) (Q5CVN0 entry or part of it): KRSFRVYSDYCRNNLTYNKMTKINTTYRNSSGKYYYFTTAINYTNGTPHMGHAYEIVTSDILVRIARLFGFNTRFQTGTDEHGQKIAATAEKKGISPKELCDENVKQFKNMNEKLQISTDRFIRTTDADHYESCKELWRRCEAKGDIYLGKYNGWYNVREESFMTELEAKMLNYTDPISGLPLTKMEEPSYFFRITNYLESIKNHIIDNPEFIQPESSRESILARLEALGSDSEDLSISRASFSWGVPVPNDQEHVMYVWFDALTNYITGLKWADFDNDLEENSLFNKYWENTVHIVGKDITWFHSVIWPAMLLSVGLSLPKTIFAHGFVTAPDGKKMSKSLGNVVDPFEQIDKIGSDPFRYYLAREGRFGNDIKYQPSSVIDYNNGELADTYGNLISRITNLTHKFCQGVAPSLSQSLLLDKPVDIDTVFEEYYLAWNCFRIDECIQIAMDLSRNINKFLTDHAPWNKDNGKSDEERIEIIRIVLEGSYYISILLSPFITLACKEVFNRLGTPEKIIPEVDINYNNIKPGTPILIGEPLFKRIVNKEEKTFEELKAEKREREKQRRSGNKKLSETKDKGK

With `CSc1ncc(Cc2ccc(Cl)cc2Cl)n1Cc1nc2nc(Cl)ccc2[nH]1` [Compound 2113, 1-({5-chloro-1H-imidazo[4,5-b]pyridin-2-yl}methyl)-5-[(2,4-dichlorophenyl)methyl]-2-(methylsulfanyl)-1H-imidazole], the IC50 is greater than 1000 nM on MetRS (C. parvum) and 2000 nM against MetRS (T. brucei). The EC50 with T. brucei amounted to 1930 nM.

`CCn1c(Cc2ccc(Cl)cc2Cl)cn(CCc2nc3ccc(F)nc3[nH]2)c1=O` [Compound 2121, 4-[(2,4-dichlorophenyl)methyl]-3-ethyl-1-(2-{5-fluoro-1H-imidazo[4,5-b]pyridin-2-yl}ethyl)-2,3-dihydro-1H-imidazol-2-one]: the IC50 at MetRS (C. parvum) came out at 476 nM; on MetRS (T. brucei) it was 41 nM. Moreover, the EC50 in the experiment on T. brucei was determined as 1340 nM.

Consider `FC(F)(F)c1ccc(-c2cccc3nc(Cc4nc5nc(Cl)ccc5[nH]4)cn23)c(Cl)c1` [Compound 2126, 2-({5-chloro-1H-imidazo[4,5-b]pyridin-2-yl}methyl)-5-[2-chloro-4-(trifluoromethyl)phenyl]imidazo[1,2-a]pyridine], for which the values for the IC50 at MetRS (C. parvum) and on MetRS (T. brucei) were greater than 1000 nM and 40 nM, respectively. Also, the EC50 in the experiment with T. brucei came out at 1780 nM.

On to `Fc1ccc2[nH]c(Cc3cn4c(-c5ccc(C(F)(F)F)cc5Cl)cccc4n3)nc2n1` [Compound 2127, 5-[2-chloro-4-(trifluoromethyl)phenyl]-2-({5-fluoro-1H-imidazo[4,5-b]pyridin-2-yl}methyl)imidazo[1,2-a]pyridine], for which the IC50 was greater than 1000 nM on MetRS (C. parvum) and 63 nM at MetRS (T. brucei). Moreover, the EC50 with T. brucei was greater than 2000 nM.

`Clc1cc(Cl)cc(-c2cccc3nc(Cc4nc5nc(Cl)ccc5[nH]4)cn23)c1` [Compound 2130, 2-({5-chloro-1H-imidazo[4,5-b]pyridin-2-yl}methyl)-5-(3,5-dichlorophenyl)-imidazo[1,2-a]pyridine]: the IC50 on MetRS (C. parvum) is greater than 1000 nM; at MetRS (T. brucei), 190 nM. For the same molecule, the EC50 in the experiment with T. brucei came to 196 nM.

In the case of `Fc1ccc2[nH]c(Cc3cn4c(-c5cc(Cl)cc(Cl)c5)cccc4n3)nc2n1` [Compound 2131, 5-(3,5-dichlorophenyl)-2-({5-fluoro-1H-imidazo[4,5-b]pyridin-2-yl}methyl)-imidazo[1,2-a]pyridine], the IC50 on MetRS (C. parvum) amounted to 806 nM; against MetRS (T. brucei), 325 nM. Further, the EC50 in the experiment on T. brucei was 197 nM.

With `COc1cc(Cl)c(-c2cccc3nc(Cc4nc5nc(Cl)ccc5[nH]4)cn23)cc1Cl` [Compound 2132, 2-({5-chloro-1H-imidazo[4,5-b]pyridin-2-yl}methyl)-5-(2,5-dichloro-4-methoxyphenyl)imidazo[1,2-a]pyridine], the IC50 on MetRS (C. parvum) was 656 nM; against MetRS (T. brucei), less than 40 nM. Besides, in the experiment on T. brucei, the EC50 is 508 nM.

`COc1cc(Cl)c(-c2cccc3nc(Cc4nc5nc(F)ccc5[nH]4)cn23)cc1Cl` [Compound 2133, 5-(2,5-dichloro-4-methoxyphenyl)-2-({5-fluoro-1H-imidazo[4,5-b]pyridin-2-yl}methyl)imidazo[1,2-a]pyridine]: the IC50 at MetRS (C. parvum) is 354 nM; at MetRS (T. brucei) it was less than 40 nM. The EC50 with T. brucei came to 849 nM.

As to `CCn1c(Cc2ccc(Cl)cc2Cl)cn(C(C)c2nc3ccc(Cl)nc3[nH]2)c1=O` (stereo not shown) [Compound 2142, 1-(1-{5-chloro-1H-imidazo[4,5-b]pyridin-2-yl}ethyl)-4-[(2,4-dichlorophenyl)-methyl]-3-ethyl-2,3-dihydro-1H-imidazol-2-one], the values for the IC50 at MetRS (C. parvum) and at MetRS (T. brucei) were 89.4 nM and less than 40 nM, respectively. Also, the EC50 in the experiment on T. brucei was 489 nM.

`CCn1c(Cc2ccc(Cl)cc2Cl)cn(C(C)c2nc3nc(F)ccc3[nH]2)c1=O` (stereo not shown) [Compound 2143, 4-[(2,4-dichlorophenyl)methyl]-3-ethyl-1-(1-{5-fluoro-1H-imidazo[4,5-b]pyridin-2-yl}ethyl)-2,3-dihydro-1H-imidazol-2-one]: the half-inhibitory concentration (IC50) at MetRS (C. parvum) is 96.6 nM; at MetRS (T. brucei), less than 40 nM. Besides, in the experiment on T. brucei, the EC50 amounted to 806 nM.

Consider `COc1ccc(-c2cccn3cc(Cc4nc5nc(F)ccc5[nH]4)nc23)c(Cl)c1` [Compound 2148, 8-(2-chloro-4-methoxyphenyl)-2-({5-fluoro-1H-imidazo[4,5-b]pyridin-2-yl}methyl)imidazo[1,2-a]pyridine], for which the values for the IC50 at MetRS (C. parvum) and at MetRS (T. brucei) were 993 nM and 60 nM, respectively. Besides, the EC50 in the experiment with T. brucei was greater than 2000 nM.

Regarding `COc1ccc(-c2cccn3cc(Cc4nc5nc(Cl)ccc5[nH]4)nc23)c(Cl)c1` [Compound 2149, 2-({5-chloro-1H-imidazo[4,5-b]pyridin-2-yl}methyl)-8-(2-chloro-4-methoxyphenyl)imidazo[1,2-a]pyridine], the IC50 was greater than 1000 nM on MetRS (C. parvum) and 45 nM against MetRS (T. brucei). In addition, the EC50 with T. brucei was greater than 2000 nM.

As to `COc1ccc(-c2cccn3c(SC)c(Cc4nc5nc(Cl)ccc5[nH]4)nc23)c(Cl)c1` [Compound 2150, 2-({5-chloro-1H-imidazo[4,5-b]pyridin-2-yl}methyl)-8-(2-chloro-4-methoxyphenyl)-3-(methylsulfanyl)imidazo[1,2-a]pyridine], the IC50 is 468 nM on MetRS (C. parvum) and less than 40 nM against MetRS (T. brucei). Besides, the EC50 with T. brucei is 897 nM.

`COc1ccc(Cc2cn(Cc3nc4nc(F)ccc4[nH]3)c(=O)n2CC(F)F)c(Cl)c1` [Compound 2259, 4-[(2-chloro-4-methoxyphenyl)methyl]-3-(2,2-difluoroethyl)-1-({5-fluoro-1H-imidazo[4,5-b]pyridin-2-yl}methyl)-2,3-dihydro-1H-imidazol-2-one]: the EC50 turned out to be 32.2 nM in the experiment on T. cruzi (Trypanosoma cruzi) and 41.4 nM in the experiment on T. cruzi. Further, the MIC in experiment [1] is 0.422 µg/mL (≈ 0.934 µM).

Consider `COc1cc(Cl)c(-c2cccc3nc(Nc4nc5nc(F)ccc5[nH]4)cn23)cc1OC` [Compound 2267, 5-(2-chloro-4,5-dimethoxyphenyl)—N-{5-fluoro-1H-imidazo[4,5-b]pyridin-2-yl}imidazo[1,2-a]pyridin-2-amine], for which, in experiment [1], the MIC was greater than 2 µg/mL. In addition, the EC50 in the experiment on T. brucei was greater than 2000 nM.

Turning to `Oc1cc(-c2cccc3nc(Cc4nc5nc(Cl)ccc5[nH]4)cn23)c(Cl)cc1Cl` [Compound 2268, 2,4-dichloro-5-[2-({5-chloro-1H-imidazo[4,5-b]pyridin-2-yl}methyl)imidazo[1,2-a]pyridin-5-yl]phenol], in experiment [1], the “(F) S. aureus (ATCC 29213) MIC” value is 0.345 µg/mL and the MIC stood at 0.69 µg/mL (≈ 1.55 µM). Further, the concentration for a half-maximal effect (EC50) in the experiment on T. brucei worked out at 186 nM.

`CCOc1cc(-c2cccc3nc(Cc4nc5nc(Cl)ccc5[nH]4)cn23)c(Cl)cc1Cl` [Compound 2269, 2-({5-chloro-1H-imidazo[4,5-b]pyridin-2-yl}methyl)-5-(2,4-dichloro-5-ethoxyphenyl)imidazo[1,2-a]pyridine]: in experiment [1], the “(F) S. aureus (ATCC 29213) MIC” value is 1.44 µg/mL and the MIC came out at 1.77 µg/mL (≈ 3.74 µM). The EC50 with T. brucei came out at 102 nM.

With `CCn1c(Cc2cc(OC)c(OC)cc2Cl)cn(Cc2nc3nc(Cl)ccc3[nH]2)c1=O` [Compound 2275, 1-({5-chloro-1H-imidazo[4,5-b]pyridin-2-yl}methyl)-4-[(2-chloro-4,5-dimethoxyphenyl)methyl]-3-ethyl-2,3-dihydro-1H-imidazol-2-one], the EC50 in the experiment with T. brucei is less than 0.91 nM.

On to `CCn1c(Cc2ccc(OC)cc2Cl)cn(Cc2nc3cnc(Cl)nc3[nH]2)c1=O` [Compound 2286, 4-[(2-chloro-4-methoxyphenyl)methyl]-1-[(2-chloro-7H-purin-8-yl)methyl]-3-ethyl-2,3-dihydro-1H-imidazol-2-one], for which the EC50 with T. brucei was greater than 2000 nM.

These data come from patent US11584744B2 (UNIVERSITY OF WASHINGTON, priority 2017, dated 2023).
